Assay results as given in ChEMBL document CHEMBL5329197, “Harvesting phosphorus-containing moieties for their antibacterial effects” (Bioorg Med Chem, 2023).
≈ marks a conversion by molar mass, not a printed value.

Assays:
[1] = Binding affinity to D-Ala-D-Ala assessed as dissociation constant
Neisseria gonorrhoeae = test: Antibacterial activity against Neisseria gonorrhoeae ATCC 49226 assessed as reduction in bacterial growth; format: functional
Staphylococcus aureus [2] = test: Antibacterial activity against methicillin-Staphylococcus aureus ATCC 43300 assessed as reduction in bacterial growth measured after 24 hrs by broth microdilution method; format: functional
[3] = Inhibition of Bordetella pertussis Adenylate cyclase toxin
Acinetobacter baumannii [4] = test: Antibacterial activity against Acinetobacter baumannii assessed as reduction in bacterial growth by Mueller-Hinton broth microdilution method; format: functional, organism-based
Staphylococcus aureus [5] = test: Antibacterial activity against methicillin-resistant Staphylococcus aureus assessed as reduction in bacterial cell growth incubated for 24 hrs by broth microdilution method; format: functional
[6] = Binding affinity to Escherichia coli ThiM TPP riboswitch assessed as dissociation constant
[7] = Inhibition of GIM1 (unknown origin)
Candida albicans [8] = test: Antifungal activity against Candida albicans ATCC 28367 assessed as reduction in fungal growth incubated for 24 hrs by CLSI based analysis; format: functional
Nakaseomyces glabratus = test: Antifungal activity against Candida glabrata ATCC 15126 assessed as reduction in fungal growth incubated for 24 hrs by CLSI based analysis; format: functional
Staphylococcus aureus [9] = test: Antibacterial activity against Staphylococcus aureus ATCC 25923 assessed as reduction in microbial growth after 24 hrs by two-fold serial dilution method; format: functional
Bacillus subtilis [10] = test: Antibacterial activity against Bacillus subtilis ATCC 6633 assessed as reduction in microbial growth after 24 hrs by two-fold serial dilution method; format: functional
Escherichia coli [11] = test: Antibacterial activity against Escherichia coli JW 1772 assessed as reduction in microbial growth after 24 hrs by two-fold serial dilution method; format: functional
Salmonella typhimurium = test: Antibacterial activity against Salmonella typhimurium DT104 ATCC 14028 assessed as reduction in microbial growth measured after 24 hrs by CLSI-based method; format: functional, Salmonella enterica subsp. enterica serovar Typhimurium; conditions: Salmonella enterica
Staphylococcus aureus [12] = test: Bactericidal activity against Staphylococcus aureus ATCC 25923 assessed as reduction in bacterial cell growth incubated for 24 hrs by CLSI-based analysis; format: functional
Bacillus subtilis [13] = test: Antibacterial activity against Bacillus subtilis ATCC 6633 assessed as minimum bactericidal concentration incubated for 24 hrs; format: functional
Escherichia coli [14] = test: Antibacterial activity against Escherichia coli assessed as minimum bactericidal concentration incubated for 24 hrs; format: functional
Enterococcus durans = test: Antibacterial activity against Enterococcus durans assessed as reduction in bacterial growth; format: functional
Bacillus subtilis [15] = test: Antibacterial activity against Bacillus subtilis assessed as reduction in bacterial growth; format: functional
Escherichia coli [16] = test: Antibacterial activity against Escherichia coli assessed as reduction in bacterial growth; format: functional
Pseudomonas aeruginosa [17] = test: Antibacterial activity against Pseudomonas aeruginosa assessed as reduction in bacterial growth; format: functional
Plasmodium falciparum = test: Antiplasmodial activity against Plasmodium falciparum assessed as parasitic growth inhibition; format: functional, organism-based
Klebsiella pneumoniae [18] = test: Antibacterial activity against carbapenem resistance Klebsiella pneumoniae ATCC BAA-1705 assessed as inhibition of microbial growth measured after 24 hrs by microplate reader analysis; format: functional
Escherichia coli [19] = test: Antibacterial activity against Escherichia coli ATCC 8730 assessed as reduction in bacterial cell growth measured after 24 hrs by microplate reader based analysis; format: functional
Staphylococcus aureus [20] = test: Antibacterial activity against methicillin-resistant Staphylococcus aureus assessed as inhibition of cell growth; format: functional
Enterococcus faecium = test: Antibacterial activity against Enterococcus faecium assessed as bacterial growth inhibition; format: functional
Enterococcus faecalis [21] = test: Antibacterial activity against Enterococcus faecalis assessed as bacterial growth inhibition; format: functional
Escherichia coli [22] = test: Antibacterial activity against Escherichia coli assessed as reduction in bacterial growth measured after 24 hrs by CLSI-based Mueller-Hinton broth dilution method; format: functional
Enterococcus faecalis [23] = test: Antibacterial activity against Enterococcus faecalis assessed as inhibition of bacterial growth measured after 24 hrs by CLSI-based microdilution method; format: functional
Staphylococcus aureus [24] = test: Antibacterial activity against Staphylococcus aureus assessed as inhibition of bacterial growth measured after 24 hrs by CLSI-based microdilution method; format: functional
Klebsiella pneumoniae [25] = test: Antibacterial activity against Klebsiella pneumonia assessed as inhibition of bacterial growth measured after 24 hrs by CLSI-based microdilution method; format: functional
Pseudomonas aeruginosa [26] = test: Antibacterial activity against Pseudomonas aeruginosa assessed as inhibition of bacterial growth measured after 24 hrs by CLSI-based microdilution method; format: functional
Acinetobacter baumannii [27] = test: Antibacterial activity against Acinetobacter baumannii assessed as reduction in bacterial growth measured after 24 hrs by Mueller-Hinton broth dilution method; format: functional
[28] = Binding affinity to Sporosarcina pasteurii Urease assessed as inhibition constant
Escherichia coli [29] = test: Antibacterial activity against Escherichia coli assessed as zone of inhibition; format: functional
Klebsiella aerogenes = test: Antibacterial activity against Enterobacter aerogenes assessed as zone of inhibition; format: functional
Carbonic anhydrase 2 [30] = molecular target: T1, Carbonic anhydrase 2 (Homo sapiens, UniProt P00918); test: Binding affinity to CA2 (unknown origin) assessed as inhibition constant
Carbonic anhydrase 2 [31] = molecular target: T1, Carbonic anhydrase 2; test: Binding affinity to human CA2 in U2OS cells assessed as inhibition constant; format: cell-based
Bacillus cereus = test: Antibacterial activity against Bacillus cereus assessed as reduction in microbial growth measured after 24 hrs by Mueller-Hinton broth based two-fold serial dilution method; format: functional
Candida albicans [32] = test: Antibacterial activity against Candida albicans assessed as reduction in microbial growth measured after 24 hrs by Mueller-Hinton broth based two-fold serial dilution method; format: functional
Staphylococcus aureus [33] = test: Antibacterial activity against Staphylococcus aureus ATCC 25900 assessed as reduction in microbial growth measured after 24 hrs by Mueller-Hinton broth based two-fold serial dilution method; format: functional
Escherichia coli [34] = test: Antibacterial activity against Escherichia coli ATCC 25922 assessed as reduction in microbial growth measured after 24 hrs by Mueller-Hinton broth based two-fold serial dilution method; format: functional
Pseudomonas aeruginosa [35] = test: Antibacterial activity against Pseudomonas aeruginosa ATCC 27853 assessed as reduction in microbial growth measured after 24 hrs by Mueller-Hinton broth based two-fold serial dilution method; format: functional
Acinetobacter baumannii [36] = test: Antibacterial activity against Acinetobacter baumannii assessed as reduction in microbial growth measured after 24 hrs by Mueller-Hinton broth based two-fold serial dilution method; format: functional
[37] = Inhibition of Bordetella pertussis Adenylate cyclase toxin in mouse J774.A1 cells; format: cell-based
Staphylococcus aureus [38] = test: Antibacterial activity against methicillin-susceptible Staphylococcus aureus assessed as reduction in bacterial cell growth; format: functional

CCC(CP(=O)(O)C(C)N)C(=O)O (stereo not drawn)
Ki [1]: 90 nM

C=C(C/C=C(\C)CCC=C(C)C)CCC(C)(C)/C=C/CC/C(C)=C\CO[C@H](COP(=O)(O)O[C@H]1O[C@H](C(N)=O)[C@@](C)(O)[C@H](OC(N)=O)[C@H]1O[C@@H]1O[C@H](CO[C@@H]2O[C@H](CO)[C@@H](O)[C@H](O)[C@H]2O)[C@@H](O[C@@H]2O[C@H](C)[C@@H](O[C@@H]3O[C@H](C(=O)NC4=C(O)CCC4=O)[C@H](O)[C@H](O)[C@H]3O)[C@H](O)[C@H]2NC(C)=O)[C@H](O)[C@H]1NC(C)=O)C(=O)O
MIC (Neisseria gonorrhoeae): 4 ng/mL (≈ 0.00253 µM)

CS(=O)(=O)[O-].O=C(CCc1ccc(O)c(O)c1)NCCCCCCCCCC[P+](c1ccccc1)(c1ccccc1)c1ccccc1
MIC (Staphylococcus aureus [2]): 0.25 µg/mL

CC(C)OC(=O)[C@H](Cc1ccccc1)NP(=O)(COCCn1cnc2c(N)nc(F)nc21)N[C@@H](Cc1ccccc1)C(=O)OC(C)C
IC50 [3]: 145 nM

CCCCCCCCCC[P+](CCCCCC[P+](CCCCCCCCCC)(c1ccccc1)c1ccccc1)(c1ccccc1)c1ccccc1
IC50 (Acinetobacter baumannii [4]): 3000 nM

CCCCCC[P+](/C=C(\c1ccccc1)c1cc(Cl)ccc1O)(c1ccccc1OC)c1ccccc1OC
MIC (Staphylococcus aureus [5]): < 1 µM

Cc1ncc(C[n+]2csc(CCOP(=O)(O)CP(=O)(O)O)c2C)c(N)n1
Kd [6]: 20 nM

COP(=O)(CCSC(C)=O)NCc1ccccn1 (stereo not drawn)
IC50 [7]: 86 µM

O=P(c1ccccc1)(c1ccccc1)C1CCC/C1=N\O (stereo not drawn)
MIC (Candida albicans [8]): 0.1 µg/mL (≈ 0.334 µM)
MIC (Nakaseomyces glabratus): 0.1 µg/mL (≈ 0.334 µM)
MIC (Staphylococcus aureus [9]): 0.1 µg/mL
MIC (Bacillus subtilis [10]): 0.1 µg/mL
MIC (Escherichia coli [11]): 0.1 µg/mL
MIC (Salmonella typhimurium): 0.1 µg/mL
MBC (Staphylococcus aureus [12]): 2 µg/mL (≈ 6.68 µM)
MBC (Bacillus subtilis [13]): 2 µg/mL (≈ 6.68 µM)
MBC (Escherichia coli [14]): 2 µg/mL (≈ 6.68 µM)

Cn1nccc1CP(=O)(Cc1ccnn1C)Cc1ccnn1C
MIC (Enterococcus durans): 0.15 µg/mL (≈ 0.451 µM)
MIC (Bacillus subtilis [15]): 0.15 µg/mL (≈ 0.451 µM)
MIC (Escherichia coli [16]): 0.15 µg/mL (≈ 0.451 µM)
MIC (Pseudomonas aeruginosa [17]): 0.15 µg/mL (≈ 0.451 µM)

CCCCCCCC(=O)OCOP(=O)(CCCC(=O)N(C)O)OCOC(=O)CCCCCCC
IC50 (Plasmodium falciparum): 50 nM

C[C@H](N)C(=O)N[C@@H](C)C(=O)N[C@@H](C)P(=O)(O)O
MIC90 (Klebsiella pneumoniae [18]): 4 µg/mL
MIC90 (Escherichia coli [19]): 0.25 µg/mL (≈ 0.936 µM)
MIC90 (Staphylococcus aureus [20]): 8 µg/mL (≈ 29.9 µM)
MIC90 (Enterococcus faecium): 2 µg/mL (≈ 7.48 µM)
MIC90 (Enterococcus faecalis [21]): 0.5 µg/mL (≈ 1.87 µM)

Cc1ncc(Cn2cc(CCOP(=O)(O)CP(=O)(O)O)nn2)c(N)n1
Kd [6]: 9 nM

CCCCc1nc(Cl)c(C(Nc2ccc(S(N)(=O)=O)cc2)P(=O)(OCC)OCC)n1Cc1ccc(Cl)cc1 (stereo not drawn)
MIC (Escherichia coli [22]): 2 µg/mL (≈ 3.31 µM)
MIC (Enterococcus faecalis [23]): 4 µg/mL (≈ 6.63 µM)
MIC (Staphylococcus aureus [24]): 4 µg/mL (≈ 6.63 µM)
MIC (Klebsiella pneumoniae [25]): 4 µg/mL (≈ 6.63 µM)
MIC (Pseudomonas aeruginosa [26]): 4 µg/mL (≈ 6.63 µM)

CCCCCCCCCCCC[P+](c1ccccc1)(c1ccccc1)c1ccccc1
MIC (Acinetobacter baumannii [27]): 6.25 µM

CN(C)CP(=O)(O)O
Ki [28]: 13 µM

CCCCCCCC[P+](CCCC)(CCCCCCCC)CCCCCCCC.CS(=O)(=O)[O-]
inhibition zone (IZ) (Escherichia coli [29]): 14 mm
inhibition zone (IZ) (Klebsiella aerogenes): 14 mm

O/N=C1\CCCC1P(=S)(c1ccccc1)c1ccccc1 (stereo not drawn)
MIC (Candida albicans [8]): 0.1 µg/mL (≈ 0.317 µM)
MIC (Nakaseomyces glabratus): 0.1 µg/mL (≈ 0.317 µM)
MIC (Staphylococcus aureus [9]): 0.1 µg/mL
MIC (Bacillus subtilis [10]): 0.1 µg/mL
MIC (Escherichia coli [11]): 0.1 µg/mL
MIC (Salmonella typhimurium): 0.1 µg/mL
MBC (Staphylococcus aureus [12]): 2 µg/mL (≈ 6.34 µM)
MBC (Bacillus subtilis [13]): 2 µg/mL (≈ 6.34 µM)
MBC (Escherichia coli [14]): 2 µg/mL (≈ 6.34 µM)

COCCOP(N)(=O)c1ccccc1 (stereo not drawn)
Ki (Carbonic anhydrase 2 [30]): 20 nM
Ki (Carbonic anhydrase 2 [31]): 32.8 µM

CCOP(=O)(OCC)C(Nc1ncc(-c2cc3ccccc3oc2=O)s1)c1ccccc1Br (stereo not drawn)
MIC (Bacillus cereus): 0.125 µg/mL
MIC (Candida albicans [32]): 0.125 µg/mL
MIC (Staphylococcus aureus [33]): 0.125 µg/mL
MIC (Escherichia coli [34]): 0.125 µg/mL
MIC (Pseudomonas aeruginosa [35]): 0.125 µg/mL
MIC (Acinetobacter baumannii [36]): 0.125 µg/mL

CN(C)CP(C)(=O)O [(DIMETHYLAMINO)METHYL(METHYL)PHOSPHINIC ACID]
Ki [28]: 0.62 µM

Nc1ncnc2c1ncn2CCOCP(=O)(O)OP(=O)(O)OP(=O)(O)O [ADEFOVIR DIPHOSPHATE]
IC50 [3]: 18 nM
IC50 [37]: 150 nM

CCCCCCCCCC[P+](C)(C)CCCCCCCCCC.[Cl-] [DIDECYLDIMETHYLPHOSPHONIUM CHLORIDE]
MIC (Staphylococcus aureus [38]): 0.78 µg/mL
